In patent publication US9084419B2, “Method for reducing temperature stress of plants” (SUMITOMO CHEMICAL COMPANY, LIMITED, priority 2009, dated 2015):

Experiments:
[1] = system: wheat (cultivar: Apogee); assay: Reduction of high temperature stress by wheat seed treatment (plant weight), Test Example 2; assay type: in vivo; settings: 40° C. (day)/30° C. (night) for 14 days; for Fresh weight of the above-ground part: 32nd day after seeding
Protocol: A Blank slurry solution containing 5% (V/V) color coat red (Becker Underwood, Inc.), 5% (V/V) CF-Clear (Becker Underwood, Inc.) and 0.4% Maxim XL (Syngenta) was prepared. A sodium salt of the compound A was dissolved in the Blank slurry to obtain a slurry solution so as to control the amount of the sodium salt within a range from 0.5 mg to 2 mg per 1 g of seeds. Using a seed treating machine (HEGE11, manufactured by Hans-Ulrich Hege), seed coating was carried out by mixing 1.3 ml of the slurry solution with 50 g of wheat seeds (cultivar: Apogee) and the seeds were dried. As a control, seed coating was carried out using the Blank slurry solution in place of the slurry solution to obtain seeds for non-treated group. The coated seeds (5 seeds each) were sown in the growing soil (AISAI) in a plastic pot and then cultivated for 18 days under the conditions of a temperature of 20 to 25° C., a humidity of 50 to 75%, an illuminance of 5,300 lx, and a day length of 16 hours. Before the stress test, thinning was carried out to control the number of seedlings to 3 per pot. The above test plants on the 18th day after seeding were cultivated for 14 days under the conditions of a temperature of 40° C. (day)/30° C. (night), a humidity of 63% (day)/70% (night), an illuminance of 7,100 lx, and a day length of 16 hours. After the stress test, on the 32nd day after seeding, fresh weight of the above-ground part of test plants was examined for 4 to 7 pots.

[2] = system: Rice (cultivar: NIHOMBARE); assay: Reduction of low temperature stress in hydroponics of rice; assay type: in vivo; settings: hydroponic culture medium; stress exposed group, 2 to 4° C. for 3 to 7 days
Protocol: Rice seeds (cultivar: NIHOMBARE) are immersed in distilled water containing 1,000 ppm of Benlate and then incubated at 30° C. for one day. The seeds are washed with distilled water, incubated in distilled water for one day and then subjected to a forced germination treatment. In the bottom of a 288-well plug tray, cotton wool is spread and then the seeds subjected to the forced germination treatment are sown. A hydroponic culture medium (8-fold diluted Kimura B hydroponic culture solution) is added thereto, followed by cultivation for 3 to 10 days under the conditions of a temperature of 28° C. (day)/23° C. (night), a humidity of 60%, an illuminance of 7,100 lx, and a day length of 12 hours. A DMSO solution having a concentration 1,000 times of each test concentration of any one of the compounds A to G is prepared and then diluted with a hydroponic culture medium. An aqueous solution (250,000 ppm) of a sodium salt of the compound A is diluted with the hydroponic culture medium to prepare a liquid having a test concentration. The above rice seedling is transferred to these hydroponic culture media containing the compound, and then cultivated for 7 to 10 days under the conditions of a temperature of 28° C. (day)/23° C. (night), a humidity of 60%, an illuminance of 7,100 lx, and a day length of 12 hours. Using a hydroponic culture medium containing 0.1% DMSO added therein as a control of any one of the compounds A to G and using a hydroponic culture medium as a control of the sodium salt of the compound A, the above rice seedlings are cultivated to form a non-treated group. The seedlings during the treatment with the present compound are cultivated for 3 to 7 days under the conditions of a temperature of 2 to 4° C., a humidity of 40 to 70%, an illuminance of 3,500 lx, and a day length of 12 hours in the stress exposed group, and under the conditions of a temperature of 25 to 30° C., a humidity of 50 to 75%, an illuminance of 4,500 lx, and a day length of 12 hours in the stress non-exposed group. After the stress test, the plant length and the weight of the above-ground part are examined. Using a pulse modulation chlorophyll fluorometer (MAXI-IMAGING-PAM, WALZ), the chlorophyll fluorescence (Fv/Fm) is measured.

[3] = system: roots; settings: known from JP 4,087,942, JP 2001-139405, Plant and Soil 255: 67-75 (2003); cited from earlier work
[4] = system: wheat (cultivar: Apogee); assay: Reduction of high temperature stress by wheat foliage spraying treatment (plant weight); assay type: in vivo; settings: foliage spray, 0.5 mg in 50 ml; 45° C., 17 hours; 4 days after stress
Protocol: Wheat (cultivar: Apogee) seeds were sown in the growing soil (AISAI) in a plastic pot ([…]×58 mm in height) and then cultivated for one week under the conditions of a temperature of 20 to 25° C., a humidity of 50 to 75%, an illuminance of 5,300 lx, and a day length of 16 hours.
A flowable formulation of the compound A was obtained by adding about 120 mg of a mixture of white carbon and a polyoxyethylene alkyl ether sulfate ammonium salt (weight ratio of 1:1) and 300 μl of water to 0.5 mg of the compound A, followed by fine grinding using a wet grinding method. The obtained flowable formulation was diluted with 50 ml of water to obtain a spray liquid. After adding 0.2% RINO as a sticker to the spray liquid, a sufficient amount (45 ml per 6 pots) was sprayed using an automatic spraying machine. As a control, a flowable formulation not containing the compound A was prepared and then sprayed to the non-treated group. Under the conditions of a temperature of 20 to 25° C., a humidity of 50 to 75%, an illuminance of 5,300 lx, and a day length of 16 hours, cultivation was carried out for 2 days.
The above test plants having been subjected to the spraying treatment were put in an artificial climate chamber set to the following conditions, and a stress test was carried out.
Temperature: 45° C., 17 hours, Illuminance: 6,500 to 7,900 lx, and Humidity: 50%. […]

[5] = system: Tomato (cultivar: Micro-Tom); assay: Reduction of high temperature stress by tomato soil irrigation treatment (fruit setting rate); assay type: in vivo; settings: soil irrigation twice, 50 ml per seedling; 40° C. (day)/30° C. (night) for 7 days; 13 days after stress
Protocol: Tomato seeds (cultivar: Micro-Tom) were sown in the growing soil (AISAI) in a plastic pot and then cultivated in a greenhouse (set at a temperature of 25° C.) for about 4 weeks. A soil irrigation treatment was carried out twice, using an aqueous solution of a sodium salt of the compound A in an amount of 50 ml per seedling, on the 15th day and the 22nd day after seeding. As a control, a soil irrigation treatment was carried out using distilled water in an amount of 50 ml per seedling to form a non-treated group. After the irrigation treatment, plants cultivated up to the period when a 1st flower cluster blooms (1 to 2 flowers bloom(s), on the 32nd day after seeding) were cultivated for 7 days under the conditions of a temperature of 40° C. (day)/30° C. (night), a humidity of 63% (day)/70% (night), an illuminance of 7,100 lx, and a day length of 16 hours in the stress exposed group, while plants were cultivated for 7 days in a greenhouse (set at a temperature of 25° C.) in the stress non-exposed group. After the stress test, the test plants were cultivated for 13 days in a greenhouse (set at a temperature of 25° C.), the number of flower setting and the number of fruit setting were counted to determine a fruit setting rate (%) (number of fruit setting/number of flower setting×100).

[6] = system: wheat (cultivar: Apogee); assay: Reduction of high temperature stress by wheat seed treatment (plant weight), Test Example 10; assay type: in vivo; settings: seed coating 5 mg per 1 g of seeds; 36° C. (day)/32° C. (night) for 19 days; 36th day after seeding
Protocol: A Blank slurry solution containing 5% (V/V) color coat red (Becker Underwood, Inc.), 5% (V/V) CF-Clear (Becker Underwood, Inc.) and 0.4% Maxim XL (Syngenta) was prepared. The compound C (methyl 4-oxo-4-(2-phenylethyl)aminobutyrate) or the compound E (5-oxo-5-[2-(3-indolyl)ethyl]aminovaleric acid) was dissolved in the Blank slurry to obtain a slurry solution so as to control the amount of the compound to be 5 mg per 1 g of seeds. Using a 50-ml conical tube, seed coating was carried out by mixing 1.3 ml of the slurry solution with 50 g of wheat seeds (cultivar: Apogee) and the seeds were dried. As a control, seed coating was carried out using the Blank slurry solution in place of the slurry solution to obtain seeds for non-treated group. The coated seeds (5 seeds each) were sown in the growing soil (AISAI) in a plastic pot and then cultivated in a greenhouse (set at a temperature of 18° C. (day)/15° C. (night)) for 17 days. Before the stress test, thinning was carried out to control the number of seedlings to 3 per pot.
The above test plants on the 17th day after seeding were cultivated for 19 days in an artificial climate chamber under the conditions of a temperature of 36° C. (day)/32° C. (night), a humidity of 50% (day)/60% (night), an illuminance of 7,000 lx, and a day length of 12 hours. […]

O=C([O-])CCC(=O)NCCc1ccccc1.[Na+] [Compound A, Na salt]
Percentage relative to non-treated group (fresh weight of the above-ground part) ([1]; seed coating 0.5 mg/g of seeds): 150%
Fresh weight of the above-ground part ([1]; seed coating 0.5 mg/g of seeds): 0.87 g/3 seedlings
Percentage relative to non-treated group (fresh weight of the above-ground part) ([1]; seed coating 1.0 mg/g of seeds): 140%
Fresh weight of the above-ground part ([1]; seed coating 1.0 mg/g of seeds): 0.77 g/3 seedlings
Percentage relative to non-treated group (fresh weight of the above-ground part) ([1]; seed coating 2.0 mg/g of seeds): 140%
Fresh weight of the above-ground part ([1]; seed coating 2.0 mg/g of seeds): 0.81 g/3 seedlings
chlorophyll fluorescence (Fv/Fm) vs non-treated group [2]: increase
plant length vs non-treated group [2]: increase
weight of the above-ground part vs non-treated group [2]: increase

O=C(O)CCC(=O)NCCc1ccccc1 [compound A, 4-oxo-4-(2-phenylethyl)aminobutyric acid]
activity to promote growth of roots [3]: have activity to promote growth of roots
fresh weight of the above-ground part vs non-treated group [4]: increased
visual evaluation of high temperature stress-induced withering and dying vs non-treated group [4]: alleviation of high temperature stress-induced withering and dying was observed
fruit setting rate vs non-treated group [5]: a decrease in fruit setting rate was remarkably alleviated

COC(=O)CCC(=O)NCCCCc1ccccc1 [compound B, methyl 4-oxo-4-(4-phenylbutyl)aminobutyrate]
chlorophyll fluorescence (Fv/Fm) vs non-treated group [2]: increase
plant length vs non-treated group [2]: increase
weight of the above-ground part vs non-treated group [2]: increase

COC(=O)CCC(=O)NCCc1ccccc1 [compound C, methyl 4-oxo-4-(2-phenylethyl)aminobutyrate]
fresh weight of the above-ground part vs non-treated group [6]: increased

O=C(O)CCCC(=O)NCCc1c[nH]c2ccccc12 [compound E, 5-oxo-5-[2-(3-indolyl)ethyl]aminovaleric acid]
fresh weight of the above-ground part vs non-treated group [6]: increased
